Target: T1, mouse ATGL I69F/T146G double mutant (Mus musculus, UniProt Q8BJ56, I69F/T146G)
T1 construct: host or cells: Expi293 cells, cell lysate
Experiment: TAG hydrolase assay, humanized mouse ATGL variants
Assay type: biochemical
Conditions: I69F/T146G double mutant of mouse ATGL
Source text: The region between aa 60 and 146 of human and mouse ATGL comprises 12 nonidentical aa. We generated 3D homology models for the minimal active domain of mouse ATGL to obtain more detailed insight into the topology of the relevant region (Figure 5d). Based on this model, aa T101, C106, R109, N111, and S133 locate at peripheral (loop) regions (indicated in orange, Figure 5d). […] For all other nonidentical aa (indicated in magenta, Figure 5d), we generated variants with single aa substitutions. The humanized variants A60V, N68K, T93I, and C97F were inactivated by Ai but not NG-497 (Figure 5a).
Figure 6 Identification of the molecular scaffold determining species selectivity. (a) Schematic view of mouse ATGL variants, which are sensitive to NG-497 inhibition. Humanized aa are indicated in red and nonidentical aa are indicated in dark blue. (b) Dose-dependent inhibition of the I69F/T146G double mutant, the I69F/T93I/C97F/T146G quadruple mutant, and human ATGL. (c) Dose-dependent inhibition of triple mutants I69F/T93I/T146G and I69F/C97F/T146G, and human ATGL. IC50 values are shown in the insets. […]
Expression of recombinant ATGL constructs and preparation of cell lysates. […] Protein concentrations were determined using Bio-Rad protein assay (Bio-Rad 785, Bio-Rad Laboratories, Munich, Germany) using BSA as standard. […]

T1 sequence (Q8BJ56 whole entry I69F/T146G): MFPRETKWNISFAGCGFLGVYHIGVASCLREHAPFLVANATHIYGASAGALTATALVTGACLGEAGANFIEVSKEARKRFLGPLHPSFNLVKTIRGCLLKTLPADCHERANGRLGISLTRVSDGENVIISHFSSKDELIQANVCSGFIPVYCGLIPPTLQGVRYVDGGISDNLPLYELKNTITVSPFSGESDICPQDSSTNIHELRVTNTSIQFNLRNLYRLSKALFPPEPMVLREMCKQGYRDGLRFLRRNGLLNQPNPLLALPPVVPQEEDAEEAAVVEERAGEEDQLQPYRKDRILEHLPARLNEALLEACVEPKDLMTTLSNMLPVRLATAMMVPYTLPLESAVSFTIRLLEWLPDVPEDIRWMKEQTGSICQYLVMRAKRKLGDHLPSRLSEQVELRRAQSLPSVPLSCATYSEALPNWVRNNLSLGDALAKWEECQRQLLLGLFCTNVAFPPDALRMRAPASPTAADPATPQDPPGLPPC

CCOc1ccc(-c2cc(OC)cc(C(=O)OC(C)C)n2)cc1 [NG-497]
IC50: 9 µM
